The values that follow come from PMC6013238, “Development of novel NEMO-binding domain mimetics for inhibiting IKK/NF-κB activation” (PLoS Biology, 2018).

Where “and” joins values, the source holds several entries; their conditions need not be identical. Identical values can stand only once.

The subject of one data set is NF-κB activation. The data set is described as follows: Dual-luciferase (NF-κB firefly/SV40-Renilla) reporter assay, TNF-α-stimulated HEK293 cells. Type of data set: cell-based, human. The settings on record: for Relative luciferase activity (NF-κB/Renilla): Fig 4B, CTRL about 1; for NF-κB luciferase activity, dose-dependent curve: Fig S1A, CTRL about 100; for IC50: Homo sapiens, HEK293, luciferase assays at 0, 25, 50, 100, 150 μM, GraphPad, read-out: IC50 of inhibition of TNF-α-mediated NF-κB activation. On the technique in general: In a reporter assay the amount or activity of a reporter protein is the signal.

Data set [1] deals with NF-κB DNA binding activity. As to the kind of experiment: EMSA of NF-κB DNA binding activity in C2C12 myoblasts. Type of data set: cell-based, mouse. The settings on record: 200 μM, 1 h, serum-free media; TNF-α 10 ng/ml 15 min. The method, then:
(§1) To confirm that the NBD mimetics reduce IKK kinase activity, phosphorylation of IκBα by IKK in response to 10 ng/ml of TNF-α was measured by western blot at 0, 5, and 10 min after stimulation. […] To determine whether the mimetics also reduce NF-κB DNA binding activity, electrophoretic mobility shift assay (EMSA) was conducted both in vitro and in vivo. […] The addition of acetonitrile increased the stability of both ZINC compounds, especially ZINC 5 (Fig 3D).
Fig 3 Two identified small molecules reduce NF-κB DNA binding activity in vivo and in vitro. (A) Levels of p-IκBα with or without treatment in response to TNF-α were determined by western blot analysis. HEK293 cells were pretreated with DMSO, ZINC12909780 (100 μM), and ZINC5 (100 μM) for 30 min followed by the stimulation of 10 ng/ml of TNF-α for 0, 5, and 10 min. Cell lysates were prepared for immunoblot against p-IκBα. GAPDH was used as a loading control. (B) EMSA analysis detecting NF-κB DNA binding activity was performed in C2C12 myoblasts. Cells were pretreated with 200 μM of DMSO, ZINC12909780, and ZINC5 in serum-free media for 1 h. TNF-α was then added to a final concentration of 10 ng/ml and incubated for 15 min. Nuclear extract was obtained for EMSA analysis. (C) EMSA analysis assessing NF-κB DNA binding activity in vivo was performed with quadriceps from mdx mice. […]
On the technique in general: Mobility shift assays separate free from complexed probe on a gel.

The test system of data set [2] is NF-κB DNA binding activity. The data set is described as follows: EMSA of NF-κB DNA binding activity in muscle of mdx mice after a single i.p. dose. It is filed as in vivo, mouse. Conditions: for NF-κB DNA binding activity in quadriceps (EMSA): mdx mice, single i.p. 10 mg/kg, 1 h and 2 h post injection. The method, then: as §1
Fig 3 Two identified small molecules reduce NF-κB DNA binding activity in vivo and in vitro. (A) Levels of p-IκBα with or without treatment in response to TNF-α were determined by western blot analysis. HEK293 cells were pretreated with DMSO, ZINC12909780 (100 μM), and ZINC5 (100 μM) for 30 min followed by the stimulation of 10 ng/ml of TNF-α for 0, 5, and 10 min. Cell lysates were prepared for immunoblot against p-IκBα. GAPDH was used as a loading control. (B) EMSA analysis detecting NF-κB DNA binding activity was performed in C2C12 myoblasts. Cells were pretreated with 200 μM of DMSO, ZINC12909780, and ZINC5 in serum-free media for 1 h. TNF-α was then added to a final concentration of 10 ng/ml and incubated for 15 min. Nuclear extract was obtained for EMSA analysis. (C) EMSA analysis assessing NF-κB DNA binding activity in vivo was performed with quadriceps from mdx mice. […] Quadriceps was harvested at 1 h and 2 h post injection for EMSA analysis. (D) The time-course pharmacokinetics of ZINC5 and ZINC12909780 in FBS media or FBS media containing acetonitrile. Underlying data can be found in S1 Data. EMSA, electrophoretic mobility shift assay; HEK293, human embryonic kidney 293 cells; i.p., intraperitoneal; NF-κB, nuclear factor κB; t1/2, half-life; TNF-α; tumor necrosis factor α. […]
Supplementary file pbio.2004663.s005.tif: S4 Fig Chronic treatment with NBD mimetics improves muscle pathology by inhibiting NF-κB DNA binding activity in mdx mice. (A) Quantification of percentage of centralized myonuclei. […]

The nature of data set [3]: Stability time course in FBS media with or without acetonitrile. It is filed as in vitro ADME. The method, then:
as §1
Fig 3 Two identified small molecules reduce NF-κB DNA binding activity in vivo and in vitro. (A) Levels of p-IκBα with or without treatment in response to TNF-α were determined by western blot analysis. HEK293 cells were pretreated with DMSO, ZINC12909780 (100 μM), and ZINC5 (100 μM) for 30 min followed by the stimulation of 10 ng/ml of TNF-α for 0, 5, and 10 min. Cell lysates were prepared for immunoblot against p-IκBα. GAPDH was used as a loading control. (B) EMSA analysis detecting NF-κB DNA binding activity was performed in C2C12 myoblasts. Cells were pretreated with 200 μM of DMSO, ZINC12909780, and ZINC5 in serum-free media for 1 h. TNF-α was then added to a final concentration of 10 ng/ml and incubated for 15 min. Nuclear extract was obtained for EMSA analysis. (C) EMSA analysis assessing NF-κB DNA binding activity in vivo was performed with quadriceps from mdx mice. Single-dose ZINC12909780 and ZINC5 at 10 mg/kg was given by i.p. Quadriceps was harvested at 1 h and 2 h post injection for EMSA analysis. (D) The time-course pharmacokinetics of ZINC5 and ZINC12909780 in FBS media or FBS media containing acetonitrile. Underlying data can be found in S1 Data. EMSA, electrophoretic mobility shift assay; HEK293, human embryonic kidney 293 cells; i.p., intraperitoneal; NF-κB, nuclear factor κB; t1/2, half-life; TNF-α; tumor necrosis factor α.

The term IC50 denotes the concentration that gives 50% inhibition. Take `O=C(CNCCc1cc(F)cc(F)c1)Nc1ccc(Cl)cn1` [SR12460]: the “Relative luciferase activity (NF-κB/Renilla)” value was 0.1864 and 0.2241 and 0.2663 in the data set on NF-κB activation (25 μM); 0.09822 and 0.1016 and 0.1003 with NF-κB activation (50 μM); 0.1076 and 0.0851 and 0.1209 in the data set on NF-κB activation (100 μM); 0.09311 and 0.129 and 0.1129 in the data set on NF-κB activation (150 μM). The “NF-κB luciferase activity, dose-dependent curve” value in the data set with NF-κB activation (25 μM) was 18.6398 and 22.411 and 26.6317; in the data set with NF-κB activation (50 μM), 9.822 and 10.1552 and 10.0281; with NF-κB activation (100 μM) it was 10.7557 and 8.5097 and 12.0922; in the data set with NF-κB activation (150 μM), 9.311 and 12.8976 and 11.2908. In the data set with NF-κB activation, the IC50 worked out at 11.3 µM.

In the case of `O=C(COC(=O)Cc1ccccc1F)Nc1ccc(Cl)cn1` [ZINC5], the “TNF-α-induced NF-κB DNA binding activity (EMSA)” value in data set [1] is “inhibit TNF-α-induced NF-κB DNA binding activity”. Further, the “NF-κB DNA binding activity in quadriceps (EMSA)” value in data set [2] was “inhibited NF-κB DNA binding activity”. The “Stability in cell culture media containing FBS” value in data set [3] is recorded as “extremely unstable”. The values for the t1/2 in data set [3] (FBS-media) and in data set [3] (FBS-media+acetonitrile) were 1.5 h and 10.8 h, respectively. In addition, the “% remaining” value in data set [3] (fbs-media+acetonitrile, 15 min) is on record as 77.2%; in data set [3] (fbs-media+acetonitrile, 30 min), 85.8%; in data set [3] (fbs-media+acetonitrile, 60 min) it was 86.3%; in data set [3] (fbs-media+acetonitrile, 240 min), 69.4%; in data set [3] (fbs-media, 15 min), 90.8%; in data set [3] (fbs-media, 30 min) it was 79.8%. Moreover, the “% remaining” value in data set [3] (fbs-media, 60 min) was found to be 61.8%; in data set [3] (fbs-media, 240 min), 16.4%.

On to `O=C(CNc1ccc(Cl)cn1)NCCc1cccc(Br)c1` [SR12343], for which the “Relative luciferase activity (NF-κB/Renilla)” value in the data set with NF-κB activation (25 μM) is 0.621 and 0.6268 and 0.6057; in the data set on NF-κB activation (50 μM) it was 0.3824 and 0.4086 and 0.3925; with NF-κB activation (100 μM), 0.327 and 0.2292 and 0.2181. The “NF-κB luciferase activity, dose-dependent curve” value in the data set on NF-κB activation (25 μM) is 62 and 63 and 60; in the data set with NF-κB activation (50 μM), 38 and 41 and 39; in the data set on NF-κB activation (100 μM), 33 and 23 and 22. In addition, the IC50 with NF-κB activation was determined as 37 µM. The “NF-κB DNA binding in TA muscle (EMSA)” value in data set [2] (9-wk-old mdx mice, single injection 30 mg/kg i.p., 2 h post injection) is recorded as “reduction in NF-κB DNA binding”.

A word on the half-life: it is the time needed for the level to fall by half in the phase considered. On to `Nc1ncccc1C(=O)OCC(=O)Nc1ccc(Cl)cc1F` [ZINC12909780], for which, in data set [1], the “TNF-α-induced NF-κB DNA binding activity (EMSA)” value was “inhibit TNF-α-induced NF-κB DNA binding activity”. Further, the “NF-κB DNA binding activity in quadriceps (EMSA)” value in data set [2] is recorded as “inhibited NF-κB DNA binding activity”. Moreover, in data set [3], the “Stability in cell culture media containing FBS” value is “relatively more stable”. The amount remaining at 0.25 h in data set [3] (bovine, FBS media containing acetonitrile, fbs-media+acetonitrile, 15 min) was 94.8%; in data set [3] (bovine, cell culture media containing FBS, fbs-media, 15 min), 101%. Also, the fraction remaining at 0.5 h in data set [3] (bovine, FBS media containing acetonitrile, fbs-media+acetonitrile, 30 min) stood at 103%; in data set [3] (bovine, cell culture media containing FBS, fbs-media, 30 min), 105%. For the same compound, the amount remaining at 1 h was found to be 106% in data set [3] (bovine, FBS media containing acetonitrile, fbs-media+acetonitrile, 60 min) and 92% in data set [3] (bovine, cell culture media containing FBS, fbs-media, 60 min). Further, the amount remaining at 4 h stood at 104% in data set [3] (bovine, FBS media containing acetonitrile, fbs-media+acetonitrile, 240 min) and 85% in data set [3] (bovine, cell culture media containing FBS, fbs-media, 240 min). For the same compound, in data set [3] (bovine, cell culture media containing FBS, FBS-media), the half-life was 15 h.
